Results taken from US9604989B2, “Imidazopyridazines as Akt kinase inhibitors” (Bayer Intellectual Property GmbH, priority 2011, dated 2017).

Experiments:
[1] = target: His-tagged human recombinant kinase full-length Akt1 (Homo sapiens (Human), UniProt P31749); assay: Akt1 kinase assay (Akt1 TR-FRET assay); assay type: biochemical; settings: 10 μM ATP, 60 min at 22° C., read-out: Akt1 median IC50
[2] = target: His-tagged human recombinant kinase full-length Akt2 (Homo sapiens (Human), UniProt P31751); assay: Akt2 kinase assay (Akt2 TR-FRET assay); assay type: biochemical; settings: 10 μM ATP, 60 min at 22° C., read-out: Akt2 median IC50
From the text: Akt2 inhibitory activity of compounds of the present invention was quantified employing the Akt2 TR-FRET assay as described in the following paragraphs.
His-tagged human recombinant kinase full-length Akt2 expressed in insect cells and activated by PDK1 was purchased form Invitrogen (part number PV 3975). As substrate for the kinase reaction the biotinylated peptide biotin-Ahx-[sequence] (C-terminus in amide form) was used which can be purchased e.g. from the company Biosynthan GmbH (Berlin-Buch, Germany). For the assay 50 nl of a 100 fold concentrated solution of the test compound in DMSO was pipetted into a black low volume 384 well microtiter plate (Greiner Bio-One, Frickenhausen, Germany), 2 μl of a solution of Akt2 in assay buffer [50 mM TRIS/HCl pH 7.5, 5 mM MgCl2, 1 mM dithiothreitol, 0.02% (v/v) Triton X-100 (Sigma)] were added and the mixture was incubated for 15 min at 22° C. to allow pre-binding of the test compounds to the enzyme before the start of the kinase reaction. Then the kinase reaction was started by the addition of 3 μl of a solution of adenosine-tri-phosphate (ATP, 16.7 μM=>final conc. in the 5 μl assay volume is 10 μM) and substrate (1.67 μM=>final conc. in the 5 μl assay volume is 1 μM) in assay buffer and the resulting mixture was incubated for a reaction time of 60 min at 22° C. The concentration of Akt2 in the assay was adjusted depending of the activity of the enzyme lot and was chosen appropriate to have the assay in the linear range, typical enzyme concentrations were in the range of about 0.2 ng/μl (final conc. in the 5 μl assay volume). The reaction was stopped by the addition of 5 μl of a solution of HTRF detection reagents (200 nM streptavidine-XL665 [Cisbio] and 1.5 nM anti-phosho-Serine antibody [Millipore, cat. #35-001] and 0.75 nM LANCE Eu-W 1024 labeled anti-mouse IgG antibody [Perkin Elmer]) in an aqueous EDTA-solution (100 mM EDTA, 0.1% (w/v) bovine serum albumin in 50 mM HEPES/NaOH pH 7.5). The resulting mixture was incubated 1 h at 22° C. to allow the binding of the biotinylated phosphorylated peptide to the streptavidine-XL665 and the antibodies. Subsequently the amount of phosphorylated substrate was evaluated by measurement of the resonance energy transfer from the anti-mouse-IgG-Eu-Chelate to the streptavidine-XL665. Therefore, the fluorescence emissions at 620 nm and 665 nm after excitation at 350 nm was measured in a TR-FRET reader, e.g. a Rubystar (BMG Labtechnologies, Offenburg, Germany) or a Viewlux (Perkin-Elmer). The ratio of the emissions at 665 nm and at 622 nm was taken as the measure for the amount of phosphorylated substrate.

phospho-AKT at S473 = assay: Cellular p-AKT1/2/3-S473 assay in KPL-4 cells; assay type: cell-based; settings: Homo sapiens, KPL4; KPL-4 breast tumour cell line, compound treatment 2 hours; read-out: pAKT-S473 median IC50
Method: The molecular mechanism of action was investigated in a set of experiments to assess the inhibition of the PI3K-AKT-mTOR pathway in responsive cell lines such as KPL-4 breast tumour cell line (PIK3CA^H1047R, HER2^O/E and hormone independent). The phospho-substrates of PI3K-AKT-mTOR axis were used as the read-outs to reflect pathway inhibition. Cells were seeded at 60-80% confluency per well in 96-well cell culture plates. After overnight incubation at 37° C. 5% CO2, cells were treated with compounds and vehicle at 37° C. for 2 hours. […] All measurements where at least done in duplicates and confirmed by independent repetition.
Alternatively pAKT-S473 was measured using the “Akt Duplex” of the MULTI-SPOT® Assay System (Fa. Meso Scale Discovery, Cat#N41100B-1) following manufacturers instructions. Each assay used 20 μg of protein extract and measured total AKT and p-AKT content simultaneously in one well. All measurements where at least done in duplicates and confirmed by independent repetition. Values for P-AKT are expressed as percentage of P-AKT level compared to total-AKT content of the extracts.

p-4E-BP1 at T70 = assay: Cellular p-4E-BP1-T70 assay in KPL-4 cells; assay type: cell-based; settings: Homo sapiens, KPL4; KPL-4 breast tumour cell line, compound treatment 2 hours; read-out: P4EBP1-T70 median IC50
[3] = tested on: KPL-4 breast cancer cell line; assay: Tumor cell proliferation assay (CellTiter-Glo), KPL-4; assay type: cell-based; settings: Homo sapiens, KPL4, 72 h drug exposure, read-out: KLP-4 median IC50
Method: (§1) Biological Assay 4.0: Tumor Cell Proliferation Assays
(§2) Compounds were tested in a cell-based assay that measures the capacity of the compounds to inhibit tumour cell proliferation following a 72 h drug exposure. Cell viability is determined using CellTiter-Glow® (CTG, Promega, cat#G7571/2/3). The CellTiter-Glo® Luminescent Cell Viability Assay is a homogeneous method to determine the number of viable cells in culture.
(§3) Detection is based on using the luciferase reaction to measure the amount of ATP from viable cells. The amount of ATP in cells correlates with cell viability. Within minutes after a loss of membrane integrity, cells lose the ability to synthesize ATP, and endogenous ATPases destroy any remaining ATP; thus the levels of ATP fall precipitously.
(§4) For each cell line assayed, cells were plated onto a separate plate for determination of fluorescence at t=0 hour and t=72 hour time points. Following overnight incubation at 37° C., chemiluminescence values for the t=0 samples were determined after adding 10 μl medium and 100 μl CTG solution according to manufacture protocol. Plates for the t=72 hour time points were treated with compounds diluted into growth medium at ten times final concentration added in 10 μL to the cell culture plate. Cells were then incubated for 72 hours at 37° C. Chemiluminescence values for the t=72 hour samples were determined. […] Experiments were controlled using a reference compound as standard.

[4] = tested on: MCF-7 breast tumour cell line; assay: Tumor cell proliferation assay (CellTiter-Glo), MCF-7; assay type: cell-based; settings: Homo sapiens, MCF7, 72 h drug exposure, read-out: MCF-7 median IC50
Method: as §1, §2, §3, §4

Sequence of His-tagged human recombinant kinase full-length Akt1 (P31749 whole entry): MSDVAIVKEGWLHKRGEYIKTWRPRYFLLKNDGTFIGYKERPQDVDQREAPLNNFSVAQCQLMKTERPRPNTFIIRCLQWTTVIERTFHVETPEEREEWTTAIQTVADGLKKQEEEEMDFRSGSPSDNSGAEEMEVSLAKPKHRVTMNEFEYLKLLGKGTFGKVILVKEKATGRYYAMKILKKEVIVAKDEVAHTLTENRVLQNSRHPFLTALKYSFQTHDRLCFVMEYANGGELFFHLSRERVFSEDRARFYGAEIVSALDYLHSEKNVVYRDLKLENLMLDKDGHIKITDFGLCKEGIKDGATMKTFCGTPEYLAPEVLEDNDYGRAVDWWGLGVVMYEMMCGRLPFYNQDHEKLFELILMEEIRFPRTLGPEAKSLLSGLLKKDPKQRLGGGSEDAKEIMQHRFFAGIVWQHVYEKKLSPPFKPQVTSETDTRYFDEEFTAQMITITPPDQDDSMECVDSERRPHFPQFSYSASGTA
Sequence of His-tagged human recombinant kinase full-length Akt2 (P31751 whole entry): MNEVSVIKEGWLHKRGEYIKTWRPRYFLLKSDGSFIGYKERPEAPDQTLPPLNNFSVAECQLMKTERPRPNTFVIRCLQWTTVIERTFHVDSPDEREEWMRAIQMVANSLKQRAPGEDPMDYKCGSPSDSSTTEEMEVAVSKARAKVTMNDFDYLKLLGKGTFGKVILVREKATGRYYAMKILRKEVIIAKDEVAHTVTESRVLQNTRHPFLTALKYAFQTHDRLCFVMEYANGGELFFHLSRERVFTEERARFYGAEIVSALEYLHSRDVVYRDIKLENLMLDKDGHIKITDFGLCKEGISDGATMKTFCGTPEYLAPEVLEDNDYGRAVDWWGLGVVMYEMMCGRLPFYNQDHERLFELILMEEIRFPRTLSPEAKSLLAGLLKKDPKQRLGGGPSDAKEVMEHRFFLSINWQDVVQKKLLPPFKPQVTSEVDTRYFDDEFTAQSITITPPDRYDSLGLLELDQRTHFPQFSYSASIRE

`COc1cc(-c2cc[nH]n2)c2nc(-c3ccc(C4(N)CCC4)cc3)c(-c3ccccc3)n2n1` [Example 73, 1-{4-[6-Methoxy-3-phenyl-8-(1H-pyrazol-3-yl)imidazo[1,2-b]pyridazin-2-yl]-phenyl}cyclobutanamine] gave an IC50 [1] of 4.3 nM, an IC50 [2] of 43 nM and an IC50 (phospho-AKT at S473) of 230 nM. The IC50 (p-4E-BP1 at T70) was 1700 nM, the IC50 [3] was 1800 nM and the IC50 [4] was 2000 nM.
`COc1cc(-c2ccncc2)c2nc(-c3ccc(C4(N)CCC4)cc3)c(-c3ccccc3)n2n1` [Example 75, 1-{4-[6-Methoxy-3-phenyl-8-(pyridin-4-yl)imidazo[1,2-b]pyridazin-2-yl]phenyl}cyclobutanamine] showed an IC50 [1] of 21 nM, an IC50 [2] of 100 nM and an IC50 (phospho-AKT at S473) of 230 nM. For the same compound, the IC50 (p-4E-BP1 at T70) was 1500 nM, the IC50 [3] was 1800 nM and the IC50 [4] was 1800 nM.
`CCOc1cc(OCC)c2nc(-c3ccc(C4(N)CCC4)cc3)c(-c3ccccc3)n2n1` [Example 76, 1-[4-(6,8-Diethoxy-3-phenylimidazo[1,2-b]pyridazin-2-yl)phenyl]cyclobutanamine] was tested, and the IC50 [1] was 11 nM, the IC50 [2] was 23 nM and the IC50 (phospho-AKT at S473) was 120 nM. The IC50 (p-4E-BP1 at T70) was 940 nM, the IC50 [3] was 1700 nM and the IC50 [4] was 940 nM.
Compound `CCCCOc1cc(OCC)nn2c(-c3ccccc3)c(-c3ccc(C4(N)CCC4)cc3)nc12` [Example 77, 1-[4-(8-Butoxy-6-ethoxy-3-phenylimidazo[1,2-b]pyridazin-2-yl)phenyl]-cyclobutanamine] has an IC50 [1] of 10 nM, an IC50 [2] of 61 nM and an IC50 (phospho-AKT at S473) of 460 nM. For the same compound, the IC50 (p-4E-BP1 at T70) was 1400 nM, the IC50 [3] was 1900 nM and the IC50 [4] was 1700 nM.
In the case of `NC1(c2ccc(-c3nc4ccc(O)nn4c3-c3ccccc3)cc2)CCC1` [Example 79, 2-[4-(1-Aminocyclobutyl)phenyl]-3-phenylimidazo[1,2-b]pyridazin-6-ol], the IC50 [1] is reported as 2000 nM, the IC50 [2] is reported as 2800 nM and the IC50 (phospho-AKT at S473) is reported as 210 nM. The IC50 (p-4E-BP1 at T70) was 910 nM, the IC50 [3] was 10000 nM and the IC50 [4] was 10000 nM.
Compound `COC(=O)COc1ccc2nc(-c3ccc(C4(N)CCC4)cc3)c(-c3ccccc3)n2n1` [Example 80, Methyl ({2-[4-(1-aminocyclobutyl)phenyl]-3-phenylimidazo[1,2-b]pyridazin-6-yl}oxy)acetate] has an IC50 [1] of 96 nM, an IC50 [2] of 610 nM and an IC50 (phospho-AKT at S473) of 190 nM. For the same compound, the IC50 (p-4E-BP1 at T70) was 9800 nM, the IC50 [3] was 10000 nM and the IC50 [4] was 10000 nM.
